Measured values reported in PMC8348983 (International Journal of Molecular Sciences, 2021).
Entries after “also recorded” stand apart in the source; their conditions may differ. Like-named read-outs stand apart in the source and are kept apart here.

What was measured:
human plasma BChE = target: T1, human plasma BChE (Homo sapiens, UniProt P06276); test: biochemical; type: biochemical; conditions: for IC50: mean ± SEM of three independent measurements, each in triplicate, read-out: IC50, hBuChE ± SEM; for SI for hBuChE: ratio hAChE IC50/hBuChE IC50; for inhibition at 100 µM: tested at 100 µM compound concentration, read-out: % Inhibition hBuChE ± SEM
T1 construct: was used as a source of BChE and was prepared from heparinized human blood; from tissue; host or cells: human plasma from heparinized human blood
T1 sequence (P06276 29-602): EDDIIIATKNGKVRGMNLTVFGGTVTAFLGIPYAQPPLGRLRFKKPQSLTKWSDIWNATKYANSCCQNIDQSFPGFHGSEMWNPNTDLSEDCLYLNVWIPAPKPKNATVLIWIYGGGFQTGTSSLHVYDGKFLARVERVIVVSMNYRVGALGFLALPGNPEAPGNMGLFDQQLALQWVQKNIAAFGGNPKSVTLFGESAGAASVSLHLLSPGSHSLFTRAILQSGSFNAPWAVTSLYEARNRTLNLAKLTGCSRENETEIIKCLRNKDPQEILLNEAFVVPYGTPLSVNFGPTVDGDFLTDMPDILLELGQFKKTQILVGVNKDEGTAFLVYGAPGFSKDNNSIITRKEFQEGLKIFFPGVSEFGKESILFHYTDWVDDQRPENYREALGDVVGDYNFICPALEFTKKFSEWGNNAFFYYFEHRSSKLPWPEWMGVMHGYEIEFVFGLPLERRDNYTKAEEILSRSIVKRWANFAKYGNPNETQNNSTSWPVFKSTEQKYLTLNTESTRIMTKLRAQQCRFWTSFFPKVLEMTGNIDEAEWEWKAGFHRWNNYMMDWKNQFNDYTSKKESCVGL

human recombinant AChE [1] = target: T2, human recombinant AChE (Homo sapiens, UniProt P22303); test: biochemical; type: biochemical; conditions: for IC50: mean ± SEM of three independent measurements, each in triplicate, read-out: IC50, hAChE ± SEM; for inhibition at 100 µM: tested at 100 µM compound concentration, read-out: %Inhibition hAChE ± SEM
T2 sequence (P22303 32-614): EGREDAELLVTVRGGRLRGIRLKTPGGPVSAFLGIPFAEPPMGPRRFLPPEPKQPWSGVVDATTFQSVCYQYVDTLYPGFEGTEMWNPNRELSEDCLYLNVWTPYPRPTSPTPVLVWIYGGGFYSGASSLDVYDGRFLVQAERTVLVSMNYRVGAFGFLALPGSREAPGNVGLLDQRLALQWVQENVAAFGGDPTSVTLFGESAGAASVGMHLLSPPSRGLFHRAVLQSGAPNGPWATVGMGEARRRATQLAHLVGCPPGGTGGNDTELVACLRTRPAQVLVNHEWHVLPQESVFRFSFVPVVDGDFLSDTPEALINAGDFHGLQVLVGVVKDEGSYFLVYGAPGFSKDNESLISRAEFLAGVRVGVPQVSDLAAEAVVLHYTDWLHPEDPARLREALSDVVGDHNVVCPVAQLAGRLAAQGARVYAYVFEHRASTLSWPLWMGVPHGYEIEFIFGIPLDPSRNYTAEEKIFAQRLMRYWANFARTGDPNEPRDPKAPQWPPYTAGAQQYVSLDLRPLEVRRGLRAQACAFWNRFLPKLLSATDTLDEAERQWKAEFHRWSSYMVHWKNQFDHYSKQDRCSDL

[2] = target: POP (prolyloligopeptidase) (Homo sapiens, UniProt P48147); test: POP inhibition assay; type: biochemical; conditions: bounds marked f: highest tested concentration due to low solubility in buffer; read-out: IC50, POP ± SEM
POP (prolyloligopeptidase), sequence (P48147 whole entry): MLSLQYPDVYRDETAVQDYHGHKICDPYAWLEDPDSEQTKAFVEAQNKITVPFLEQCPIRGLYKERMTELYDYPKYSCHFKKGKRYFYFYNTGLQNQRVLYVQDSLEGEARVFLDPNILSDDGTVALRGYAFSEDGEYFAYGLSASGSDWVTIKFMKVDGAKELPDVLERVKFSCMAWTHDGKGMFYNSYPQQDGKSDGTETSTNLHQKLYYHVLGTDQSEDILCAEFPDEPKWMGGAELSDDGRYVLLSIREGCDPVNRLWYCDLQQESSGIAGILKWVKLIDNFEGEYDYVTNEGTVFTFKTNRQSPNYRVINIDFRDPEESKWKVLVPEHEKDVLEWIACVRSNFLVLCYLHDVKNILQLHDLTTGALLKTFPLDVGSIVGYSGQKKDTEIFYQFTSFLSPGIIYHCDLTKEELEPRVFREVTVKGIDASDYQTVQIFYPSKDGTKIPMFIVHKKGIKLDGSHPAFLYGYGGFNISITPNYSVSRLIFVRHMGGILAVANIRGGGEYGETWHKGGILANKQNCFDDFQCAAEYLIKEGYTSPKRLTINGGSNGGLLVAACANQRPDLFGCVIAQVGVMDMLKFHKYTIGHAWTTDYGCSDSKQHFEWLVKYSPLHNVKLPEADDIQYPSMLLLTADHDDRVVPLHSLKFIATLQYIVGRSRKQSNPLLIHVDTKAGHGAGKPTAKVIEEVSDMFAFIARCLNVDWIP
Description: The previously applied procedure was used. Detailed description of the assay can be found in Supplementary Materials.
POP (EC 3.4.21.26) was dissolved in phosphate-buffered saline (PBS; 0.01 M Na/K phosphate buffer, […]
The assay was performed in standard polystyrene 96-well microplates with a flat and clear bottom.
Stock solutions of tested compounds were prepared in DMSO (10 mM). Dilutions (10−3 to 10−7 M) were prepared from the stock solution with deionized H2O; the control was performed with the same DMSO concentration. POP substrate, (Z)-Gly-Pro-p-nitroanilide, was dissolved in 50% 1,4-dioxane (5 mM). For each reaction, PBS (170 μL), tested compound (5 μL), and POP (5 μL) were incubated for 5 min at 37 °C. Then, substrate (20 μL) was added, and the microplate was incubated for 30 min at 37 °C. The formation of p-nitroanilide, directly proportional to the POP activity, was measured […]
Synergy 2, BioTek Instruments, Winooski, VT). The inhibition potency of tested compounds was calculated by nonlinear regression analysis and was expressed as an IC50 value (concentration of inhibitor which causes 50% POP inhibition). […]

human recombinant AChE [3] = target: T2, human recombinant AChE; set-up: method as in PMID 32455879; conditions: template alkaloids, Figure 1; read-out: IC50,hAChE; cited from earlier work

| Compound | IC50 (human plasma BChE) | SI for hBuChE (human plasma BChE) | inhibition at 100 µM (human plasma BChE) | IC50 (human recombinant AChE [1]) | inhibition at 100 µM (human recombinant AChE [1]) | IC50 [2] | hBuChE inhibition potency (in words) (human plasma BChE; screening at 100 µM) | hAChE inhibition potency (in words) (human recombinant AChE [1]; screening at 100 µM) | IC50 (human recombinant AChE [3]) |
| --- | --- | --- | --- | --- | --- | --- | --- | --- | --- |
| C=CCN(CCc1ccc(O)cc1)Cc1ccc(OC)c(OCc2ccccc2)c1 [Compound 4, N-allyl-N-(3-benzyloxy-4-methoxybenzyl)-2-(4-hydroxyphenyl)ethan-1-amine] | 0.25 ± 0.01 µM | >394 | 97.9 ± 0.6% | > 100 µM | 45.2 ± 2.4% | > 79 µM | – | – | – |
| C=CCN(CCc1ccc(O)cc1)Cc1ccc(OC)c(OCC)c1 [Compound 16, N-allyl-N-(3-ethoxy-4-methoxybenzyl)-2-(4-hydroxyphenyl)ethan-1-amine] | 1.21 ± 0.08 µM | >82 | 91.7 ± 0.4% | > 100 µM | 28.3 ± 1.1% | – | – | – | – |
| CCOc1cc(CNCCc2ccc(O)cc2)ccc1OC [Compound 15, N-(3-ethoxy-4-methoxybenzyl)-2-(4-hydroxyphenyl)ethan-1-amine] | 15.1 ± 2.34 µM | >6 | 75.3 ± 0.6% | > 100 µM | 25.8 ± 1.3% | – | – | – | – |
| C=CCN(CCc1ccc(OC)cc1)Cc1ccc(OC)c(OCc2ccccc2)c1 [Compound 14, N-allyl-N-(3-benzyloxy-4-methoxybenzyl)-2-(4-methoxyphenyl)ethan-1-amine] | 0.38 ± 0.01 µM | 98 | 95.8 ± 0.9% | 37.7 µM | 60.9 ± 0.4% | – | – | – | – |
| CCOc1cc(CNCCc2ccccc2)ccc1OC [Compound 18, N-(3-ethoxy-4-methoxybenzyl)-2-phenylethan-1-amine] | 41.1 ± 2.6 µM | >2 | 60 ± 1.6% | > 100 µM | 0% | – | – | – | – |
| C=CCOc1ccc(CCN(CC=C)Cc2ccc(OCc3ccccc3)c(OC)c2)cc1 [Compound 5, N-allyl-N-(4-benzyloxy-3-methoxybenzyl)-2-(4-allyloxyphenyl)ethan-1-amine] | > 100 µM | – | 38.9 ± 0.9% | > 100 µM | 3.4 ± 0.5% | – | no inhibition potency; also recorded: inactive | no inhibition potency | – |
| C=CCOc1ccc(CCN(CC=C)Cc2ccc(OC)c(OCC)c2)cc1 [Compound 17, N-allyl-N-(3-ethoxy-4-methoxybenzyl)-2-(4-allyloxyphenyl)ethan-1-amine] | 9.89 ± 1.37 µM | – | 77 ± 1% | > 100 µM | 29.3 ± 3.9% | – | – | – | – |
| COc1cc(CNCCc2ccc(O)cc2)ccc1OCc1ccccc1 [Compound 1, N-(4-benzyloxy-3-methoxybenzyl)-2-(4-hydroxyphenyl)ethan-1-amine] | 0.36 ± 0.03 µM | >277 | 98.7 ± 0.3% | > 100 µM | 30.4 ± 2.1% | 186 ± 14 µM | – | – | – |
| C=CCN(CCc1ccccc1)Cc1ccc(OC)c(OCC)c1 [Compound 19, N-allyl-N-(3-ethoxy-4-methoxybenzyl)-2-phenylethan-1-amine] | 4.63 ± 0.48 µM | >22 | 80.2 ± 0.2% | > 100 µM | 5.9 ± 2.1% | – | – | – | – |
| COc1ccc(CCNCc2ccc(OC)c(OCc3ccccc3)c2)cc1 [Compound 12, N-(3-benzyloxy-4-methoxybenzyl)-2-(4-methoxyphenyl)ethan-1-amine] | 1.12 ± 0.11 µM | >89 | 94.6 ± 0.6% | > 100 µM | 0% | – | – | – | – |
| COc1ccc(CNCCc2ccc(O)cc2)cc1OCc1ccccc1 [Compound 2, N-(3-benzyloxy-4-methoxybenzyl)-2-(4-hydroxyphenyl)ethan-1-amine] | 0.29 ± 0.02 µM | >348 | 97.7 ± 0.5% | > 100 µM | 35.8 ± 1.2% | > 79 µM | – | – | – |
| C=CCN(CCc1ccccc1)Cc1ccc(OC)c(OCc2ccccc2)c1 [Compound 10, N-allyl-N-(3-benzyloxy-4-methoxybenzyl)-2-phenylethan-1-amine] | 1.17 ± 0.04 µM | 18 | 92 ± 2.4% | 21.5 µM | 72.4 ± 1.1% | – | – | – | – |
| CCOc1cc(CN(CCc2ccccc2)Cc2ccccc2)ccc1OC [Compound 20, N-benzyl-N-(3-ethoxy-4-methoxybenzyl)-2-phenylethan-1-amine] | 0.69 ± 0.03 µM | >145 | 82.5 ± 1% | > 100 µM | 49.5 ± 0.8% | – | – | – | – |
| C=CCN(CCc1ccc(OC)cc1)Cc1ccc(OCc2ccccc2)c(OC)c1 [Compound 13, N-allyl-N-(4-benzyloxy-3-methoxybenzyl)-2-(4-methoxyphenyl)ethan-1-amine] | 2.72 ± 0.5 µM | >37 | 90.9 ± 1.5% | > 100 µM | 32.7 ± 1.6% | – | – | – | – |
| COc1ccc(CNCCc2ccccc2)cc1OCc1ccccc1 [Compound 8, N-(3-benzyloxy-4-methoxybenzyl)-2-phenylethan-1-amine] | 1.1 ± 0.05 µM | >90 | 96.6 ± 0.4% | > 100 µM | 12.6 ± 0.5% | – | – | – | – |
| COc1cc(CNCCc2ccccc2)ccc1OCc1ccccc1 [Compound 7, N-(4-benzyloxy-3-methoxybenzyl)-2-phenylethan-1-amine] | 1.28 ± 0.05 µM | >78 | 94.5 ± 0.9% | > 100 µM | 23.4 ± 2.5% | – | – | – | – |
| COc1ccc(CCNCc2ccc(OCc3ccccc3)c(OC)c2)cc1 [Compound 11, {[4-(benzyloxy)-3-methoxyphenyl]methyl}[2-(4-methoxyphenyl)ethyl]amine] | 2.39 ± 0.27 µM | >41 | 93.5 ± 0.3% | > 100 µM | 27.9 ± 0.7% | – | – | – | – |
| COc1cc(CN(C)CCc2ccc(O)cc2)c(-c2cccc3c2N(C)CC3)cc1OC [carltonine A] | – | – | – | – | – | – | – | – | > 100 µM |
| CN(CCc1ccc(O)cc1)Cc1cc2c(cc1-c1cccc3c1N(C)CC3)OCO2 [carltonine B] | – | – | – | – | – | – | – | – | > 100 µM |
| C=CCN(CCc1ccccc1)Cc1ccc(OCc2ccccc2)c(OC)c1 [Compound 9, N-allyl-N-(4-benzyloxy-3-methoxybenzyl)-2-phenylethan-1-amine] | 5.19 ± 0.28 µM | >19 | 74.9 ± 2.4% | > 100 µM | 18.8 ± 1.9% | – | – | – | – |
| C=CCN(CCc1ccc(O)cc1)Cc1ccc(OCc2ccccc2)c(OC)c1 [Compound 3, N-allyl-N-(4-benzyloxy-3-methoxybenzyl)-2-(4-hydroxyphenyl)ethan-1-amine] | 0.61 ± 0.04 µM | >163 | 96.8 ± 1.1% | > 100 µM | 20.8 ± 0.9% | > 200 µM | – | – | – |
